Test results reported in patent US20200270588A1, “GLUCOSYL TRANSFERASE POLYPEPTIDES AND METHODS OF USE” (Syngenta Participations AG, priority 2017, published 2020).

Legend:
Format in all cases: biochemical
[1] = biological target: T1, Zea mays bx8 (SEQ ID No: 2) with GIGVD peptide insert in place of D442 (Zea mays, UniProt Q8W2B7, INS441GIGV); assay: LC/MS glucosyl transferase assay (glucoside peak area), purified enzyme; details: LC/MS assay run for 30 min
T1 construct: His tag (N); made in house; host or cells: E. coli, pET24a
Description: In an alternative method for assaying the various enzymes, the test glucosyl transferase enzyme is reacted with substrates exactly as above except that the assay is stopped by adding an equal volume of acetonitrile. Alternatively 50 or 100 μl samples from assay reactions are added to 500 μl ethyl acetate to stop the reaction. In this case samples are then vortexed and 400 μl of the ethyl acetate partition removed, dried down, and resuspended in 100 μl 80:20 acetonitrile/water. The formation of product gluco side and/or disappearance of substrate test herbicide is then monitored directly by LC/MS. Samples are analyzed by LC-MS using an Agilent 1290 liquid chromatography system and Thermo Q-Exactive mass spectrometer. The chromatography is achieved on a Waters Acquity C18 BEH (50×2.1 mm) 1.7 μm particle size column, using a 6 minute gradient run of Water (0.2% formic acid) and Acetonitrile. The Q-Exactive is operated in positive ionisation electrospray mode, using Full scan-AIF mode, at 35,000 resolution, between 100-800 m/z. All analytes are identified from the full scan data to within at least 5 ppm accuracy of their predicted pseudo-molecular ion [M+H]^+ m/z value. In order to obtain quantitative data standard curves are run using herbicides and herbicide glucosides synthesized as standards. […]

[2] = system: Larkspur bx glucosyl transferase (SEQ ID NO 10); assay: UDP-Glo glucosyl transferase assay, purified enzyme; details: 1 mM herbicide V
Description: (§1) Glucosyl transferase activity is assayed via measurement of acceptor substrate-dependent production of UDP from ultrapure UDP-glucose using the Promega UDP-Glo™ method and according to the manufacturer's instructions. Assays are run in 96 well microtiter plates.
(§2) Enzyme, typically at a stock concentration of ˜2 mg/ml is diluted to an appropriate concentration in 50 mM K^+ Hepes buffer at pH7.5 containing 0.5 mg/mL bovine serum albumin (BSA) and 5 ul aliquots of this diluted enzyme added to each well of a Perkin Elmer white ½ area 96 well plate. […] Assays are run for an appropriate time (usually 10 to 60 min) so that the amount of UDP formed lies within the most nearly linear part of the UDP standard curve and are stopped with the addition and mixing of 25 ul UDP-Glo™ detection reagent (prepared as described below). Plates are then incubated at room temperature for 60 minutes and then read in a luminescence plate reader (Perkin Elmer Envision 2130 Multilabel Reader). A UDP standard curve is run alongside each set of assays and reagent blank control assays run with DMSO in place of test herbicide. Typically, 300 pmol of UDP corresponds to a Relative Luminescence Unit (RLU) reading of about 1.5E7 and the response curve between 0 and 600 pmol is fitted to a polynomial function (see for example FIG. 2).
(§3) The UDP-Glo™ reagents are made up and used according to the manufacturer's instructions. Thus, Nucleotide Detection Buffer and ATP are combined to make nucleotide detection reagent (NDR) dispensed into aliquots and frozen to be freshly thawed before use.
(§4) Km and kcat values in respect of UDP-glucose are derived by carrying out experiments to measure initial rates over a suitable range of concentrations of UDP glucose out at a fixed near saturating concentration of acceptor substrate. Best fit values of kcat, Km and kcat/Km are obtained by direct fitting of the data to the Michaelis-Menten equation using Graphpad Prism™ software.
(§5) DNA sequences, optimized for E. coli codon usage, corresponding to SEQ IDs 1-15, encoding BX8 and BX9 orthologue polypeptides derived from a range of species (as depicted in FIG. 1) were synthesized by Genewiz (South Plainfield, USA) with 5′ NdeI and 3′ XhoI restriction sites. The various orthologues were synthesized with either a N-terminal 6×His purification tag or C-terminal 6×His purification tag (i.e. tried both ways to achieve best expression of activity) and cloned into the E. coli expression plasmid pET24a (Novagen) via the NdeI and XhoI restriction sites. Expression, purification and assay was as described in Example 1.
(§6) Assays were carried out as described in Example 1. Partly purified C-terminally his tagged w/t Larkspur enzyme (SEQ ID No 10 with a 6 amino acid C-terminal tag) catalyzed glucosyl transfer to herbicide V at a rate estimated to be about 0.0065/s/pmol at 1 mM herbicide V. The similarly-tagged w/t bx-like enzymes from rye (SEQ ID No 11) and from wheat (SEQ ID No 4) were also active but only at levels close to the detection limit at ˜0.0015/s/pmol. Further examples of assay results from further experiments are depicted in Table 14. All of the proteins were C-terminally his tagged versions of the sequences referenced except for the Zea mays bx8 SEQ ID NO: 2 which was N-terminally his tagged.

[3] = system: rye bx-like glucosyl transferase (SEQ ID No 11); assay: as above; details: herbicide V; close to the detection limit
Description: as §1, §2, §3, §4, §5, §6

T1 sequence (Q8W2B7 other isoform, or with tags, fused parts or gaps INS441GIGV): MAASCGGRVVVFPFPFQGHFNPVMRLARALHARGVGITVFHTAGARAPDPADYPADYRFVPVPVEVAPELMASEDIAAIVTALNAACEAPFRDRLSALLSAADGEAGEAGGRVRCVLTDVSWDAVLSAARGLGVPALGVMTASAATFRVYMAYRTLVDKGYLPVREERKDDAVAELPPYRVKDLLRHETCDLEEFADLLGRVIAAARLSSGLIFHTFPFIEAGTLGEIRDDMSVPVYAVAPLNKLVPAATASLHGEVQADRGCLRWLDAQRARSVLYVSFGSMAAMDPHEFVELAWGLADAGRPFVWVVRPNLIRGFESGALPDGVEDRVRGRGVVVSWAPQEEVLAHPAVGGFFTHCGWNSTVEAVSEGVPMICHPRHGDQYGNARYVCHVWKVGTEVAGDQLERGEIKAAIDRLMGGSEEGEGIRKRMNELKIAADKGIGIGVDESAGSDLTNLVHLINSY

SMILES: CN1CC(O)N(c2cc(C(F)(F)F)ccn2)C1=O (stereo not drawn) [Compound V]
- integrated peak area of glucoside product [1]: 2.5E6 units
- rate of glucosyl transfer [2]: about 0.0065 /s/pmol
- rate of glucosyl transfer [3]: ~0.0015 s⁻¹ pmol⁻¹
